Legend:
[1] = Spontaneous CO release from suspensions (gas chromatography, TCD); assay type: physicochemical; settings: suspension in RPMI with 10% FBS, 37° C., dark
Description: CO detection was carried out by Gas Chromatography using a thermal conductivity detector (TCD) for the quantification of CO and CO2. The experiments were done under an initial atmosphere of reconstituted air, free of CO and CO2. […] […] Samples were withdrawn with gas-tight Hamilton syringes after homogenization of the head-space at given time intervals, preferably 2 hours, 4 hours and 6 hours. […] The volumes of CO released are usually in the range between 0.5-3 mL.
As a possible result of the use of suspensions, the number of CO equivalents released in RPMI varied slightly. As an example of the possible variations, the average of eight independent assays done with suspensions of Compound I.1 is given in Table 2.

[2] = CO release in the presence of reactive oxygen species (TBHP, H2O2, KO2); assay type: physicochemical; settings: 25° C., dark; for Equivalents of CO2 released, H2O2 / Equivalents of CO released, H2O2: H2O2 100:1, water; for Equivalents of CO2 released, TBHP / Equivalents of CO released, TBHP: TBHP 100:1, water
Description: The studies were done using the same method and apparatus described in Example 7 with the following modifications: RPMI/FBS was replaced by double distilled water in the experiments with H2O2 and TBHP and by tetrahydrofuran (THF) for the experiments with KO2; the temperature was kept at 25° C. The concentration of Compound I.1 was approximately 1 mM and the ration of concentrations of H2O2, TBHP and KO2 relative to Compound I.1 was 100:1. The amount of CO2 generated was also measured in the same experiment to ascertain the concurrent oxidation of coordinated CO. TBHP was added from a 70% aqueous solution and H2O2 from a 30% aqueous solution.

[3] = test system: rat arthritis model; settings: previously shown, US 2003/0068387; cited from earlier work

O=[C][Mo]([I])([C]=O)([C]=O)([C]=O)[C]=O [Compound I.6]
Equivalents of CO released, RPMI ([1]; 2 hours): 0.42 equivalents of CO
Equivalents of CO released, RPMI ([1]; 4 hours): 1.00 equivalents of CO
Equivalents of CO released, RPMI ([1]; 6 hours): 1.25 equivalents of CO
Equivalents of CO2 released, H2O2 ([2]; 1 h): 0.14 equivalents
Equivalents of CO released, H2O2 ([2]; 1 h): 1.31 equivalents
Equivalents of CO2 released, H2O2 ([2]; 3 h): 0.44 equivalents
Equivalents of CO released, H2O2 ([2]; 3 h): 3.04 equivalents
Equivalents of CO2 released, H2O2 ([2]; 5 h): 0.51 equivalents
Equivalents of CO released, H2O2 ([2]; 5 h): 3.20 equivalents
Equivalents of CO2 released, H2O2 ([2]; 24 h): 0.35 equivalents
Equivalents of CO released, H2O2 ([2]; 24 h): 1.91 equivalents
Equivalents of CO2 released, TBHP ([2]; 1 h): 0.00 equivalents
Equivalents of CO released, TBHP ([2]; 1 h): 0.48 equivalents
Equivalents of CO2 released, TBHP ([2]; 3 h): 0.24 equivalents
Equivalents of CO released, TBHP ([2]; 3 h): 1.75 equivalents
Equivalents of CO2 released, TBHP ([2]; 5 h): 0.55 equivalents
Equivalents of CO released, TBHP ([2]; 5 h): 3.51 equivalents
Equivalents of CO2 released, TBHP ([2]; 24 h): 0.99 equivalents
Equivalents of CO released, TBHP ([2]; 24 h): 4.29 equivalents

O=[C][Mo]([I])([C]=O)([C]=O)([C]=O)[C]=O [Compound I.16, K(diglyme)3 [Mo(CO)5I]]
Equivalents of CO released, RPMI ([1]; 2 hours): 0.94 equivalents of CO
Equivalents of CO released, RPMI ([1]; 4 hours): 1.20 equivalents of CO
Equivalents of CO released, RPMI ([1]; 6 hours): 1.28 equivalents of CO

O=[C][Mo]([I])([C]=O)([C]=O)([C]=O)[C]=O [Compound I.18, [NH4](diglyme)3[Mo(CO)5I]]
Equivalents of CO released, RPMI ([1]; 2 hours): 0.55 equivalents of CO
Equivalents of CO released, RPMI ([1]; 4 hours): 0.73 equivalents of CO
Equivalents of CO released, RPMI ([1]; 6 hours): 0.79 equivalents of CO

ClCCl [Methylene chloride]
effects in a rat arthritis model [3]: beneficial effects
